Measured values published in ChEMBL document CHEMBL1132933, “Protease inhibitors: synthesis and QSAR study of novel classes of nonbasic thrombin inhibitors incorporating sulfonylguanidine and O-methylsulfonylisourea moieties at P1” (J Med Chem, 2000).

How the values were obtained:
Trypsin = Trypsin (Homo sapiens, UniProt P07477+P07478+P35030); assay: Inhibitory activity against human trypsin (using Chromozym TH as the substrate); assay type: protein assay
Prothrombin = Prothrombin (Homo sapiens, UniProt P00734); assay: Inhibitory activity against human thrombin (using Chromozym TH as the substrate)

Row | Structure (SMILES) | Ki (Trypsin) | Ki (Prothrombin)
1 | COC(=N)NS(=O)(=O)c1ccc(NC(=O)C2CCCN2C(=O)NS(=O)(=O)c2ccc(C)cc2)cc1 (centres undefined) | 1500 nM | 63 nM
2 | Cc1ccc(S(=O)(=O)NC(=O)N2CCCC2C(=O)Nc2ccc(S(=O)(=O)NN=C(N)N)cc2)cc1 (centres undefined) | 1530 nM | 43 nM
3 | COC(=N)NS(=O)(=O)c1cc(Cl)cc(Cl)c1O | 1550 nM | 170 nM
4 | Cc1ccc(S(=O)(=O)NC(=O)NCCC(=O)N[C@@H](Cc2c[nH]cn2)C(=O)Nc2ccc(S(=O)(=O)N=C(N)N)cc2)cc1 | 1350 nM | 15 nM
5 | N=C(N)NS(=O)(=O)C(F)(F)C(F)(F)C(F)(F)C(F)(F)F | 2100 nM | 520 nM
6 | COC(=N)NS(=O)(=O)c1ccc(I)cc1 | 1415 nM | 243 nM
7 | Cc1ccc(S(=O)(=O)NC(=O)N2CCC[C@H]2C(=O)NCC(=O)Nc2ccc(S(=O)(=O)N=C(N)N)cc2)cc1 | 1400 nM | 21 nM
8 | N=C(N)NNS(=O)(=O)c1ccccc1[N+](=O)[O-] | 1800 nM | 324 nM
9 | COC(=N)NS(=O)(=O)c1ccc([N+](=O)[O-])c(Cl)c1 | 1200 nM | 177 nM
10 | Cc1ccc(S(=O)(=O)NC(=O)N[C@@H](Cc2ccccc2)C(=O)N2CCCC2C(=O)Nc2ccc(S(=O)(=O)NN=C(N)N)cc2)cc1 (some centres undefined) | 1450 nM | 10 nM
11 | N=C(N)NS(=O)(=O)c1c(Br)c(Br)c(Br)c(Br)c1C(=O)O | 1250 nM | 225 nM
12 | COC(=N)NS(=O)(=O)C(F)(F)C(F)(F)C(F)(F)C(F)(F)F | 2180 nM | 565 nM
13 | COC(=N)NS(=O)(=O)c1ccc(OC)cc1 | 1460 nM | 276 nM
14 | COC(=N)NS(=O)(=O)c1cccc2ccccc12 | 1425 nM | 154 nM
15 | N=C(N)NNS(=O)(=O)c1ccccc1C(=O)O | 1400 nM | 205 nM
16 | CN(C)c1cccc2c(S(=O)(=O)N=C(N)N)cccc12 | 1150 nM | 120 nM
17 | N=C(N)NNS(=O)(=O)c1ccc(NC(=O)[C@@H](Cc2ccccc2)NC(=O)OCc2ccccc2)cc1 | 1315 nM | 50 nM
18 | N=C(N)NNS(=O)(=O)c1cc(Cl)cc(Cl)c1O | 1100 nM | 98 nM
19 | N=C(N)NNS(=O)(=O)c1ccc(N)cc1 | 1425 nM | 91 nM
20 | N=C(N)NNS(=O)(=O)c1ccc(Br)cc1 | 1215 nM | 203 nM
21 | Cc1ccc(S(=O)(=O)NC(=O)NCCC(=O)N[C@@H](Cc2c[nH]cn2)C(=O)Nc2ccc(S(=O)(=O)NN=C(N)N)cc2)cc1 | 1390 nM | 10 nM

Row | Structure (SMILES) | Ki (Trypsin) | Ki (Prothrombin)
22 | COC(=N)NS(=O)(=O)c1ccc(C)cc1 | 2150 nM | 328 nM
23 | Cc1ccc(S(=O)(=O)NN=C(N)N)cc1 | 1775 nM | 270 nM
24 | N=C(N)NNS(=O)(=O)c1cccc(N)c1 | 1400 nM | 88 nM
25 | COC(=N)NS(=O)(=O)Cc1ccccc1 | 1900 nM | 450 nM
26 | COC(=N)NS(=O)(=O)c1ccc(OC)c(N)c1 | 1235 nM | 96 nM
27 | Cc1ccc(S(=O)(=O)N=C(N)N)cc1 | 1810 nM | 290 nM
28 | N=C(N)NNS(=O)(=O)c1cccc([N+](=O)[O-])c1 | 1235 nM | 170 nM
29 | COC(=N)NS(=O)(=O)c1c(Br)c(Br)c(Br)c(Br)c1C(=O)O | 1300 nM | 239 nM
30 | N=C(N)NS(=O)(=O)c1ccc(Cl)cc1 | 1170 nM | 225 nM
31 | N=C(N)NNS(=O)(=O)c1c(Br)c(Br)c(Br)c(Br)c1C(=O)O | 1200 nM | 213 nM
32 | Cc1ccc(S(=O)(=O)NC(=O)N[C@H](Cc2ccccc2)C(=O)Nc2ccc(S(=O)(=O)NN=C(N)N)cc2)cc1 | 1340 nM | 44 nM
33 | COC(=N)NS(=O)(=O)c1ccc(NC(=O)CNC(=O)[C@@H]2CCCN2C(=O)NS(=O)(=O)c2ccc(C)cc2)cc1 | 1540 nM | 27 nM
34 | COC(=N)NS(=O)(=O)c1ccc2ccccc2c1 | 1445 nM | 147 nM
35 | COc1ccc(S(=O)(=O)N=C(N)N)cc1 | 1320 nM | 240 nM
36 | N=C(N)NS(=O)(=O)c1ccccc1[N+](=O)[O-] | 1850 nM | 320 nM
37 | COC(=N)NS(=O)(=O)C(F)(F)C(F)(F)C(F)(F)C(F)(F)C(F)(F)C(F)(F)C(F)(F)C(F)(F)F | 2135 nM | 403 nM
38 | N=C(N)NS(=O)(=O)c1cccc(C(=O)O)c1 | 1500 nM | 121 nM
39 | COC(=N)NS(=O)(=O)c1cccc(N)c1 | 1370 nM | 99 nM
40 | COC(=N)NS(=O)(=O)c1ccc(N)cc1 | 1580 nM | 106 nM
41 | N=C(N)NS(=O)(=O)c1cccs1 | 1320 nM | 185 nM
42 | CC1(C)C2CCC1(CS(=O)(=O)N=C(N)N)C(=O)C2 (centres undefined) | 980 nM | 320 nM

Row | Structure (SMILES) | Ki (Trypsin) | Ki (Prothrombin)
43 | COC(=N)NS(=O)(=O)c1ccccc1[N+](=O)[O-] | 2340 nM | 355 nM
44 | Cc1ccc(S(=O)(=O)NC(=O)N[C@H](Cc2ccccc2)C(=O)Nc2ccc(S(=O)(=O)N=C(N)N)cc2)cc1 | 1250 nM | 43 nM
45 | N=C(N)NNS(=O)(=O)c1cccc(C(=O)O)c1 | 1520 nM | 112 nM
46 | N=C(N)NS(=O)(=O)c1ccc(C(=N)N)cc1 | 450 nM | 300 nM
47 | COC(=N)NS(=O)(=O)N(C)C | 3300 nM | 1360 nM
48 | COC(=N)NS(=O)(=O)C(F)(F)F | 1450 nM | 895 nM
49 | N=C(N)NS(=O)(=O)C(F)(F)C(F)(F)C(F)(F)C(F)(F)C(F)(F)C(F)(F)C(F)(F)C(F)(F)F | 1950 nM | 360 nM
50 | N=C(N)NS(=O)(=O)c1cccc2ccccc12 | 1230 nM | 136 nM
51 | N=C(N)NS(=O)(=O)c1cccc([N+](=O)[O-])c1 | 1100 nM | 190 nM
52 | COC(=N)NS(=O)(=O)CC12CCC(CC1=O)C2(C)C (centres undefined) | 1075 nM | 336 nM
53 | COC(=N)NS(=O)(=O)c1ccccc1C(=O)O | 1550 nM | 325 nM
54 | COC(=N)NS(=O)(=O)c1c(F)c(F)c(F)c(F)c1F | 1425 nM | 153 nM
55 | COC(=N)NS(=O)(=O)c1ccc(Br)cc1 | 1370 nM | 265 nM
56 | N=C(N)NS(=O)(=O)c1ccc([N+](=O)[O-])cc1 | 975 nM | 180 nM
57 | CC(=O)Nc1ccc(S(=O)(=O)N=C(N)N)cc1 | 1070 nM | 195 nM
58 | Cc1ccc(S(=O)(=O)NC(=O)NCC(=O)N[C@@H](Cc2c[nH]cn2)C(=O)Nc2ccc(S(=O)(=O)NN=C(N)N)cc2)cc1 | 1555 nM | 15 nM
59 | N=C(N)NS(=O)(=O)c1ccc2ccccc2c1 | 1300 nM | 132 nM
60 | CN(C)c1ccc(/N=N/c2ccc(S(=O)(=O)NN=C(N)N)cc2)cc1 | 1355 nM | 139 nM
61 | COC(=N)NS(=O)(=O)c1cccc(C(=O)O)c1 | 1595 nM | 197 nM
62 | COC(=N)NS(=O)(=O)c1ccc(NC(C)=O)cc1 | 1345 nM | 202 nM
